Measured values published in patent US11285156B2, “Substituted piperazines as KRAS G12C inhibitors” (Amgen Inc., priority 2018, dated 2022).
Read-outs that look alike come from different tables or passages of the source.

How the values were obtained:
[1] = tested on: Phosphorylation of ERK1/2 in MIA PaCa-2 cells; test: Phospho-ERK1/2 MSD assay in MIA PaCa-2 cells; assay type: cell-based; details: read-out: p-ERK IC50 (2 h, MiaPaCa-2; μM)
Protocol: (§1) Phospho-ERK1/2 MSD Assay:
(§2) Sixteen hours prior to compound treatment, MIA PaCa-2 or A549 cells were seeded in 96-well cell culture plates at a density of 25,000 cells/well and incubated at 37° C., 5% CO2. A compound dose-response titration was diluted in growth media, added to appropriate wells of a cell culture plate, and then incubated at 37° C., 5% CO2 for 2 or 4 hours (see Table 15). Following compound treatment, cells were stimulated with 10 ng/mL EGF (Roche 11376454001) for 10 min, washed with ice-cold Dulbecco's phosphate-buffered saline, no Ca2+ or Mg2+ (ThermoFisher Scientific 14190144), and then lysed in RIPA buffer (50 mM Tris-HCl pH 7.5, 1% Igepal, 0.5% sodium deoxycholate, 150 mM NaCl. and 0.5% sodium dodecyl sulfate) containing protease inhibitors (Roche 4693132001) and phosphatase inhibitors (Roche 4906837001). Phosphorylation of ERK1/2 in compound-treated lysates was assayed using Phospho-ERK1/2 Whole Cell Lysate kits (Meso Scale Discovery K151DWD) according to the manufacturer's protocol.

[2] = tested on: Phosphorylation of ERK1/2 in A549 cells; test: Phospho-ERK1/2 MSD assay in A549 cells; assay type: cell-based; details: read-out: p-ERK IC50 (2 h, A549; μM)
Protocol: as §1
as §2, with “MIA PaCa-2 (ATCC® CRL-1420™) and A549 (ATCC® CCL-185™) cells were cultured in RPMI 1640 Medium (ThermoFisher Scientific 11875093) containing 10% fetal bovine serum (ThermoFisher Scientific 16000044) and 1× penicillin-streptomycin-glutamine (ThermoFisher Scientific 10378016). Sixteen” for “Sixteen”

[3] = Homo sapiens, MIA PaCa-2, 2 h, 2 h compound treatment, MIA PaCa-2 cells, EGF stimulated
[4] = Homo sapiens, A549, 2 h, 2 h compound treatment, A549 cells, EGF stimulated
[5] = 2 h compound treatment, MIA PaCa-2 cells, EGF stimulated
[6] = 2 h compound treatment, A549 cells, EGF stimulated

Q: Which results are given for `C=CC(=O)N1C[C@H](C)N(c2nc(=O)n(-c3c(C)ccnc3C(C)C)c3nc(-c4ccccc4CO)c(F)cc23)C[C@H]1C` (atropisomer, axis not shown; (M)) [Example 94-2, (M)-4-[(2S,5R)-2,5-dimethyl-4-prop-2-enoyl-piperazin-1-yl]-6-fluoro-7-[2-(hydroxymethyl)phenyl]-1-(2-isopropyl-4-methyl-3-pyridyl)pyrido [2,3-d]pyrimidin-2-one]?
A: IC50 ([1]; Homo sapiens, MIA PaCa-2, 2 h): 0.204 µM; IC50 ([2]; Homo sapiens, A549, 2 h): > 7.5 µM

Q: How did the IC50 [1, 3] turn out when `C=CC(=O)N1C[C@H](C)N(c2nc(=O)n(-c3c(C)cc(C(C)C)nc3C(C)C)c3nc(-c4ccccc4F)c(Cl)cc23)C[C@H]1C` (single isomer, unassigned) [Example 176-1] was run?
A: Its IC50 is 0.347 µM.

Q: And the IC50 [2, 4]?
A: Its IC50 is 5.75 µM.

Q: Which IC50 [1, 3] does the source give for `C=CC(=O)N1C[C@H](C)N(c2nc(=O)n(-c3c(C(C)C)cccc3C(C)C)c3nc(-c4ccccc4F)c(Cl)cc23)C[C@H]1C` [Example 102-1, 4-((2S,5R)-4-Acryloyl-2,5-dimethylpiperazin-1-yl)-6-chloro-1-(2,6-diisopropylphenyl)-7-(2-fluorophenyl)pyrido[2,3-d]pyrimidin-2(1H)-one] here?
A: Its IC50 is 0.395 µM.

Q: What about the IC50 [2, 4] of the same compound?
A: The IC50 was 5.25 µM.

Q: How did the IC50 [1, 3] turn out when `C=CC(=O)N1[C@H](C)CN(c2nc(=O)n(-c3c(C(C)C)cnnc3C(C)C)c3nc(-c4ccccc4F)c(Cl)cc23)C[C@@H]1C` (single isomer, unassigned) [Example 206-1, 4-(cis-4-Acryloyl-3,5-dimethylpiperazin-1-yl)-6-chloro-1-(3,5-diisopropylpyridazin-4-yl)-7-(2-fluorophenyl)pyrido[2,3-d]pyrimidin-2(1H)-one] was run?
A: The IC50 was 0.1 µM.

Q: What about the IC50 [2, 4] of the same compound?
A: Its IC50 is greater than 7.5 µM.

Q: What does the source list for `C=CC(=O)N1C[C@H](C)N(c2nc(=O)n(-c3c(C)cncc3C(C)C)c3nc(-c4ccccc4F)c(Cl)cc23)C[C@H]1C` (single isomer, unassigned) [Example 100-8]?
A: IC50 [1, 3]: 0.042 µM; IC50 [2, 4]: > 7.5 µM

Q: With `C=CC(=O)N1C[C@H](C)N(c2nc(=O)n(-c3c(C(C)C)ccnc3C(C)C)c3nc(-c4ccccc4C)c(Cl)cc23)C[C@H]1C` (single isomer, unassigned) [Example 125-2] as the compound, how does the IC50 [1, 5] read?
A: Its IC50 is 0.038 µM.

Q: What about the IC50 [2, 6] of the same compound?
A: Its IC50 is greater than 7.5 µM.

Q: With `C=CC(=O)N1C[C@H](C)N(c2nc(=O)n(-c3c(C)ccnc3C(C)C)c3nc(-c4cscc4C)c(Cl)cc23)C[C@H]1C` (atropisomer, axis not shown; (M)) [Example 92-5, (M)-6-Chloro-4-[(2S,5R)-2,5-dimethyl-4-prop-2-enoyl-piperazin-1-yl]-1-(2-isopropyl-4-methyl-3-pyridyl)-7-(4-methyl-3-thienyl)pyrido[2,3-d]pyrimidin-2-one] as the compound, how does the IC50 [1, 3] read?
A: Its IC50 is 0.119 µM.

Q: And the IC50 [2, 4]?
A: Its IC50 is greater than 7.5 µM.

Q: How did the IC50 [1, 3] turn out when `C=CC(=O)N1C[C@H](C)N(c2nc(=O)n(-c3c(C(C)C)ccnc3C(C)C)c3nc(-c4ccccc4C(C)C)c(Cl)cc23)C[C@H]1C` [Example 124-8, 6-Chloro-1-(2,4-diisopropyl-3-pyridyl)-4-[(2S,5R)-2,5-dimethyl-4-prop-2-enoyl-piperazin-1-yl]-7-(2-isopropylphenyl)pyrido[2,3-d]pyrimidin-2-one] was run?
A: The IC50 was 0.24 µM.

Q: What about the IC50 [2, 4] of the same compound?
A: Its IC50 is 6.36 µM.

Q: With `C=CC(=O)N1C[C@H](C)N(c2nc(=O)n(-c3c(N(C)C)ccnc3C(C)C)c3nc(-c4c(N)cccc4F)c(Cl)cc23)C[C@H]1C` [Example 55-57, 7-(2-Amino-6-fluoro-phenyl)-6-chloro-1-[4-(dimethylamino)-2-isopropyl-3-pyridyl]-4-[(2S,5R)-2,5-dimethyl-4-prop-2-enoyl-piperazin-1-yl]pyrido[2,3-d]pyrimidin-2-one] as the compound, how does the IC50 [1, 5] read?
A: The IC50 was 0.177 µM.

Q: What about the IC50 [2, 6] of the same compound?
A: Its IC50 is greater than 7.5 µM.

Q: With `C=CC(=O)N1C[C@H](C)N(c2nc(=O)n(-c3c(C(C)C)ccnc3C(C)C)c3nc(-c4ccccc4C(F)(F)F)c(Cl)cc23)C[C@H]1C` (single isomer, unassigned) [Example 125-3] as the compound, how does the IC50 [1, 5] read?
A: The IC50 was 0.041 µM.

Q: What about the IC50 [2, 6] of the same compound?
A: Its IC50 is greater than 7.5 µM.

Q: Which results are given for `C=CC(=O)N1C[C@H](C)N(c2nc(=O)n(-c3c(N(C)C)ccnc3C(C)C)c3nc(-c4c(N)cccc4F)c(Cl)cc23)C[C@H]1C` [Example 55-54, 7-(2-Amino-6-fluoro-phenyl)-6-chloro-1-[4-(dimethylamino)-2-isopropyl-3-pyridyl]-4-[(2S,5R)-2,5-dimethyl-4-prop-2-enoyl-piperazin-1-yl]pyrido[2,3-d]pyrimidin-2-one]?
A: IC50 [1, 5]: 0.016 µM; IC50 [2, 4]: > 7.5 µM

Q: For `C=CC(=O)N1C[C@H](C)N(c2nc(=O)n(-c3c(C)ccnc3C(C)C)c3nc(-c4c(F)cccc4[S+](C)[O-])c(Cl)cc23)C[C@H]1C` (atropisomer, axis not shown; (M)) [Example 211-1, (M)-4-((2S,5R)-4-Acryloyl-2,5-dimethylpiperazin-1-yl)-6-chloro-7-(2-fluoro-6-(methylsulfinyl)phenyl)-1-(2-isopropyl-4-methylpyridin-3-yl)pyrido[2,3-d]pyrimidin-2(1H)-one], which IC50 [1, 5] is on record?
A: The IC50 was 0.128 µM.

Q: And the IC50 [2, 4]?
A: The IC50 was greater than 7.5 µM.

Q: How did the IC50 [1, 3] turn out when `C=CC(=O)N1C[C@H](C)N(c2nc(=O)n(-c3c(C)ccnc3C(C)C)c3nc(-c4cc(C)sc4C)c(Cl)cc23)C[C@H]1C` (atropisomer, axis not shown; (M)) [Example 92-7, (M)-6-Chloro-4-[(2S,5R)-2,5-dimethyl-4-prop-2-enoyl-piperazin-1-yl]-7-(2,5-dimethyl-3-thienyl)-1-(2-isopropyl-4-methyl-3-pyridyl)pyrido [2,3-d]pyrimidin-2-one] was run?
A: The IC50 was 0.259 µM.

Q: And the IC50 [2, 4]?
A: Its IC50 is greater than 7.5 µM.

Q: Which IC50 [1, 5] does the source give for `C=CC(=O)N1C[C@H](C)N(c2nc(=O)n(-c3c(C)ccnc3C(C)C)c3nc(-c4ccccc4[S+](C)[O-])c(Cl)cc23)C[C@H]1C` (atropisomer, axis not shown; (M)) [Example 212-1, (M)-4-((2S,5R)-4-Acryloyl-2,5-dimethylpiperazin-1-yl)-6-chloro-1-(2-isopropyl-4-methylpyridin-3-yl)-7-(2-(methylsulfinyl)phenyl)pyrido[2,3-d]pyrimidin-2(1H)-one] here?
A: Its IC50 is 0.705 µM.

Q: And the IC50 [2, 4]?
A: The IC50 was greater than 7.5 µM.

Q: Which results are given for `C=CC(=O)N1C[C@H](C)N(c2nc(=O)n(-c3c(C)ccnc3C(C)C)c3nc(-c4cc(S(C)(=O)=O)ccc4F)c(Cl)cc23)C[C@H]1C` (atropisomer, axis not shown; (M)) [Example 223, (M)-4-((2S,5R)-4-Acryloyl-2,5-dimethylpiperazin-1-yl)-6-chloro-7-(2-fluoro-5-(methylsulfonyl)phenyl)-1-(2-isopropyl-4-methylpyridin-3-yl)pyrido[2,3-d]pyrimidin-2(1H)-one]?
A: IC50 [1, 3]: 0.659 µM; IC50 [2, 4]: > 7.5 µM

Q: Which IC50 [1, 5] does the source give for `C=CC(=O)N1C[C@H](C)N(c2nc(=O)n(-c3c(C(C)C)ccnc3C(C)C)c3nc(-c4ccccc4)c(Cl)cc23)C[C@H]1C` (single isomer, unassigned) [Example 125-7] here?
A: Its IC50 is 0.137 µM.

Q: And the IC50 [2, 6]?
A: Its IC50 is greater than 7.5 µM.

Q: `C=CC(=O)N1C[C@H](C)N(c2nc(=O)n(-c3c(C)ccnc3C(C)C)c3nc(-c4c(F)cccc4S(C)(=O)=O)c(Cl)cc23)C[C@H]1C` (atropisomer, axis not shown; (M)) [Example 214-1, (M)-4-((2S,5R)-4-Acryloyl-2,5-dimethylpiperazin-1-yl)-6-chloro-7-(2-fluoro-6-(methylsulfonyl)phenyl)-1-(2-isopropyl-4-methylpyridin-3-yl)pyrido[2,3-d]pyrimidin-2(1H)-one] was tested. Which IC50 [1, 3] did it give?
A: Its IC50 is 0.03 µM.

Q: And the IC50 [2, 4]?
A: Its IC50 is greater than 7.5 µM.

Q: Which IC50 [2, 4] does the source give for `C=CC(=O)N1C[C@H](C)N(c2nc(=O)n(-c3c(C(C)C)cnc(C)c3C)c3nc(-c4ccccc4F)c(Cl)cc23)C[C@H]1C` [Example 179, 4-((2S,5R)-4-Acryloyl-2,5-dimethylpiperazin-1-yl)-6-chloro-7-(2-fluorophenyl)-1-(5-isopropyl-2,3-dimethylpyridin-4-yl)pyrido[2,3-d]pyrimidin-2(1H)-one] here?
A: Its IC50 is greater than 7.5 µM.

Q: How did the IC50 ([2]; Homo sapiens, A549, 2 h) turn out when `C=CC(=O)N1C[C@H](C)N(C2=NC(=O)CN(CC(C)(C)C)c3nc(-c4ccccc4F)c(Cl)cc32)C[C@H]1C` [Example 217, 5-((2S,5R)-4-Acryloyl-2,5-dimethylpiperazin-1-yl)-7-chloro-8-(2-fluorophenyl)-1-neopentyl-1,2-dihydro-3H-pyrido[2,3-e][1,4]diazepin-3-one] was run?
A: Its IC50 is greater than 7.5 µM.
